# From ChEMBL document CHEMBL3886577, “N-((6-amino-pyridin-3-yl)methyl)-heteroaryl-carboxamides” (2016)
# Target: Plasma kallikrein (Homo sapiens, UniProt P03952)
# Assay: (§1) In-vitro Plasma Kallikrein Inhibition: Enzymatic reactions were conducted in ⿿assay buffer⿿, comprising 50 mM Hepes/NaOH at pH 7.8, 150 mM NaCl, 1 mM EDTA and 0.05% (w/v) CHAPS. For the determination of IC50 values, the assays were performed at room temperature in 384-well plates with a total assay volume of 25.25 ul per well. The test compound was dissolved in 90% (v/v) DMSO/water. For the assays, 250 nL of the 90% (v/v) DMSO/water solution or compound solution were added per well, followed by the addition of 12.5 ul protease solution (protease in assay buffer). The final assay concentration of the human plasma kallikrein was nominally 25 pM, the 11 compound concentrations in the dilution series were in the range form 1 nM to 100 uM. After 1 hour of pre-incubation at room temperature, the reactions were started by the addition of 12.5 ul substrate solution (in assay buffer, final assay concentration was 0.5 uM). After the addition of the substrate solution, the final DMSO concentration in the assay was 0.9% (v/v).
# Format: cell-free
# Sequence of Plasma kallikrein (P03952 20-390 limits assumed): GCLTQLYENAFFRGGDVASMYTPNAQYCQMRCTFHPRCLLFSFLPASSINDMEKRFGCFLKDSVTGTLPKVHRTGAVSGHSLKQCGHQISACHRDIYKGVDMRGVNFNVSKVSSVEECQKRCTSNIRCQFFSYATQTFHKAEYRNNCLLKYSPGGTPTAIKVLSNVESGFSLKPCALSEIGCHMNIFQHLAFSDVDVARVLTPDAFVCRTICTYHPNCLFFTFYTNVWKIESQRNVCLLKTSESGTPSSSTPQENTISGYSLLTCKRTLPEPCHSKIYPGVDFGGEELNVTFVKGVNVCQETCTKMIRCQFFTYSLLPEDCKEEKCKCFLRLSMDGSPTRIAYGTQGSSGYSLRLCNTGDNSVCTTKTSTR
# Sequence of Plasma kallikrein (P03952 391-638 limits assumed): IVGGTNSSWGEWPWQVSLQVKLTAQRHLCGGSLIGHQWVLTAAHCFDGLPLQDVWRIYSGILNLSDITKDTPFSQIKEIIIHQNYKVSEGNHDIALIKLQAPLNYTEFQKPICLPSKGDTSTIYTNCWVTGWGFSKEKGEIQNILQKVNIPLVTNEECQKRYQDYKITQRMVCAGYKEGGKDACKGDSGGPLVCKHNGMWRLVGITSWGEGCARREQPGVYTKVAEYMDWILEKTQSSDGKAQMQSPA
row,SMILES,IC50 [nM]
1,Cc1cc(N)nc(C)c1CNC(=O)c1cc(C)n(Cc2ccco2)c1C,739
2,Cc1cc(N)nc(C)c1CNC(=O)c1cn(Cc2ccc(-c3ccccc3)cc2)nn1,30
3,COc1cc(Cn2cc(C(=O)NCc3c(C)cc(N)nc3C)cn2)ccc1Cn1cccn1,0.0912
4,Cc1cc(N)nc(C)c1CNC(=O)c1nc(Cc2ccccc2)n(C)n1,7670
5,Cc1cc(N)nc(C)c1CNC(=O)c1nnn(Cc2ccccc2)c1C,52100
6,COc1ccc2cc(Cn3cc(C(=O)NCc4c(C)cc(N)nc4C)cn3)ccc2c1,5
7,CNC(=O)COc1cc(N)nc(C)c1CNC(=O)c1cnn(Cc2ccccc2)c1,70
8,Cc1cc(N)nc(C)c1CNC(=O)c1cnn(Cc2ccc(CO)cc2)c1,150

# System: not listed separately
# Assay: as §1
row,SMILES,IC50 [nM]
1,Cc1nc(N)cc(OCC(=O)C(C)(C)C)c1CNC(=O)c1cn(Cc2ccccc2)nn1,24
